{"source": "patent US20170165286A1", "about": "“COMPOSITIONS AND METHODS FOR TREATING DIABETES AND LIVER DISEASES” (Cempra Pharmaceuticals, Inc., priority 2014, published 2017)", "key": {"STAM mice": {"system": "STAM mice", "experiment": "NASH-HCC (STAM) model: body weight, liver weight, macroscopic liver appearance", "assay_type": "in vivo", "settings": "for Liver Weight / Liver-to-body Weight Ratio: 5-9 wks", "procedure": "NASH-HCC (STAM™) Model. C57BL/6 (15-day-pregnant female) mice are obtained from Charles River Laboratories Japan (Kanagawa, Japan). Male pups are selected for the study. NASH is induced in male mice by a single subcutaneous injection of 200 μg streptozotocin (STZ, Sigma-Aldrich, USA) solution 2 days after birth, followed by feeding a HFD (57 kcal % fat, cat#: HFD32, CLEA Japan, Japan) beginning at 4 weeks of age. At 5 weeks of age, mice are divided into a control group and one or more treated group (generally 8 mice per group). Animals are sacrificed at 9 weeks of age, and biochemical, histological, and gene expression analyses are performed.\nAll animals used in the study are housed and cared for in accordance with local regulations. Test animals are maintained in an SPF facility under controlled conditions of temperature (23±2° C.), humidity (45±10%), lighting (12-hour artificial light and dark cycles; light from 8:00 to 20:00) and air exchange. A high pressure (20±4 Pa) is maintained in the experimental room. Test animals are housed in polycarbonate cages KN-600 (Natsume Seisakusho, Japan) with a maximum of 4 mice per cage. Sterilized PULMASμ (Material Research Center, Japan) are used for bedding and replaced once a week. Sterilized solid HFD is provided ad libitum, being placed in the metal lid on top of the cage. Pure water is provided ad libitum from a water bottle equipped with a rubber stopper and a sipper tube. Water bottles are replaced once a week, cleaned and sterilized in autoclave and reused.\nGenerally, elevated NAFLD activity score (NAS)≧5, steatosis, and elevated ALT is evident by week 6, NASH is evident by week 7, perisinusoidal fibrosis is evident by week 9, nodules are evident by week 12, and HCC is evident by week 16. It is to be understood herein that perisinusoidal fibrosis in mice is the model for NASH in humans (Fujii et al., Med Mol Morphol 46: 141-152 (2013)).\nDuring weeks 5-9 (starting at day 35±2), test compound is administered (generally orally) at various doses diluted to 10 mL/kg and according to various dosing protocols to treatment groups (8 mice each) while a second group (8 mice) is administered vehicle only. Animals are sacrificed at 9 weeks.\nIllustrative dose response test groups. Group 1-Normal. Eight normal mice are fed with a normal diet ad libitum without any treatment until 9 weeks of age. Group 2-Vehicle. Eight NASH mice are orally administered vehicle (0.5% w/v methylcellulose+0.2% Tween®80) in a volume of 10 mL/kg twice daily from 5 to 9 week of age. Group 3-solithromycin 5 mg/kg. Eight NASH mice are orally administered vehicle supplemented with solithromycin at a dose of 5 mg/kg in the morning and the vehicle in the evening (5 mg/kg/day) from 5 to 9 weeks of age. Group 4-solithromycin 10 mg/kg. Eight NASH mice are orally administered vehicle supplemented with solithromycin at a dose of 10 mg/kg twice daily (20 mg/kg/day) from 5 to 9 weeks of age. Group 5-solithromycin 25 mg/kg. Eight NASH mice are orally administered vehicle supplemented with solithromycin at a dose of 25 mg/kg twice daily (50 mg/kg/day) from 5 to 9 weeks of age. Group 6-solithromycin 50 mg/kg. Eight NASH mice are orally administered vehicle supplemented with solithromycin at a dose of 50 mg/kg once daily (50 mg/kg/day) from 5 to 9 weeks of age."}, "[1]": {"experiment": "Absorption, metabolism and excretion of orally administered solithromycin", "assay_type": "in vivo", "settings": "oral", "text": "Macrolide antibiotics, like solithromycin, are primarily metabolized and excreted through liver-dependent mechanisms; this study evaluated the safety and PK of solithromycin in patients with chronic liver disease. It has been observed that approximately 78% of orally administered solithromycin is absorbed. Less than 15% unchanged solithromycin is excreted in the feces. It has also been observed that ˜70% of orally administered solithromycin is metabolized and excreted by the liver. Accordingly, high liver concentrations are observed. No dosage adjustment is needed when administering solithromycin to patients with mild, moderate, or severe hepatic impairment."}, "[2]": {"experiment": "Phase 1 study in subjects with hepatic impairment: pharmacokinetics and protein binding", "assay_type": "in vivo, humans", "design": "AUC(0-t): concentration or dose not given beside the values", "settings": "for AUC0-t Geometric Mean Ratio (%) (test/reference) / AUC0-tau Geometric Mean Ratio (%) (test/reference) / Cmax Geometric Mean Ratio (%) (test/reference) / AUC(0-t) / AUC / Cmax: Day 5; for AUC(0-t) / AUC / Cmax / half-life: human, plasma", "procedure": "Safety and Pharmacokinetics of solithromycin in Subjects with Hepatic Impairment. The safety, pharmacokinetics (PK), and protein binding of solithromycin was evaluated in subjects with mild, moderate, and severe hepatic impairment compared to healthy subjects with normal hepatic function (matched for age, weight, and gender). The evaluation was performed in a Phase 1, open-label, multiple-dose study in subjects with mild (Child-Pugh Class A), moderate (Child-Pugh Class B), and severe (Child-Pugh Class C) hepatic impairment and healthy matched control subjects with normal hepatic function. All subjects received a once-daily dose of 800 mg on Day 1 followed by 400 mg on Days 2 through 5.\nPK parameters on Day 5 were compared between the hepatic impaired cohorts and the control group, and geometric mean ratios were calculated."}, "[3]": {"settings": "5 mg/kg q.d. oral, listed as Solithromycin, 5 mg/kg"}, "[4]": {"settings": "10 mg/kg b.i.d. oral, listed as Solithromycin, 10 mg/kg"}, "[5]": {"settings": "25 mg/kg b.i.d. oral, listed as Solithromycin, 25 mg/kg"}}, "note": "Read-outs that look alike come from different tables or passages of the source.", "data": [{"molecule": "CC[C@H]1OC(=O)[C@@](C)(F)C(=O)[C@H](C)[C@@H](O[C@@H]2O[C@H](C)C[C@H](N(C)C)[C@H]2O)[C@](C)(OC)C[C@@H](C)C(=O)[C@H](C)[C@H]2N(CCCCn3cc(-c4cccc(N)c4)nn3)C(=O)O[C@]12C", "note": "[solithromycin]", "values": [{"measurement": "Liver Weight", "setting": "STAM mice; 5 mg/kg q.d. oral, 5 mg/kg", "value": "no statistically significant difference"}, {"measurement": "Liver-to-body Weight Ratio", "setting": "STAM mice; 5 mg/kg q.d. oral, 5 mg/kg", "value": "no statistically significant differences"}, {"measurement": "Liver Weight", "setting": "STAM mice; [3]", "value": "1335 ± 185", "unit": "mg"}, {"measurement": "Liver-to-body Weight Ratio", "setting": "STAM mice; [3]", "value": "7.0 ± 0.8", "unit": "%"}, {"measurement": "Liver Weight", "setting": "STAM mice; 10 mg/kg b.i.d. oral, 10 mg/kg", "value": "significant reductions"}, {"measurement": "Liver-to-body Weight Ratio", "setting": "STAM mice; 10 mg/kg b.i.d. oral, 10 mg/kg", "value": "no statistically significant differences"}, {"measurement": "Liver Weight", "setting": "STAM mice; [4]", "value": "1187 ± 134", "unit": "mg"}, {"measurement": "Liver-to-body Weight Ratio", "setting": "STAM mice; [4]", "value": "6.7 ± 0.8", "unit": "%"}, {"measurement": "Liver Weight", "setting": "STAM mice; 25 mg/kg b.i.d. oral, 25 mg/kg", "value": "significant reductions"}, {"measurement": "Liver-to-body Weight Ratio", "setting": "STAM mice; 25 mg/kg b.i.d. oral, 25 mg/kg", "value": "significant decrease"}, {"measurement": "Liver Weight", "setting": "STAM mice; [5]", "value": "1087 ± 97", "unit": "mg"}, {"measurement": "Liver-to-body Weight Ratio", "setting": "STAM mice; [5]", "value": "5.9 ± 0.7", "unit": "%"}, {"measurement": "Liver Weight", "setting": "STAM mice; 50 mg/kg q.d. oral", "value": "1242 ± 141", "unit": "mg"}, {"measurement": "Liver-to-body Weight Ratio", "setting": "STAM mice; 50 mg/kg q.d. oral", "value": "6.0 ± 0.7", "unit": "%"}, {"measurement": "Mean body weight on the day of sacrifice compared to vehicle group", "setting": "STAM mice; Group 4 (10 mg/kg b.i.d.)", "value": "significant decrease"}, {"measurement": "Mean body weight on the day of sacrifice compared to vehicle group", "setting": "STAM mice; Groups 3, 5, 6", "value": "no significant differences"}, {"measurement": "Macroscopic liver appearance (coloration)", "setting": "STAM mice; as a function of increasing dose", "value": "substantially less yellow in color"}, {"measurement": "Fraction of orally administered dose absorbed", "setting": "[1]", "value": "approximately 78%"}, {"measurement": "Fraction of orally administered dose metabolized and excreted by the liver", "setting": "[1]", "value": "~70", "unit": "%"}, {"measurement": "Unchanged drug excreted in the feces", "setting": "[1]", "value": "Less than 15%"}, {"measurement": "AUC0-t Geometric Mean Ratio (%) (test/reference)", "setting": "[2]; Mild versus Control", "value": 117.44, "unit": "%"}, {"measurement": "AUC0-tau Geometric Mean Ratio (%) (test/reference)", "setting": "[2]; Mild versus Control", "value": 75.30, "unit": "%"}, {"measurement": "Cmax Geometric Mean Ratio (%) (test/reference)", "setting": "[2]; Mild versus Control", "value": 121.08, "unit": "%"}, {"measurement": "AUC0-t Geometric Mean Ratio (%) (test/reference)", "setting": "[2]; Moderate versus Control", "value": 117.83, "unit": "%"}, {"measurement": "AUC0-tau Geometric Mean Ratio (%) (test/reference)", "setting": "[2]; Moderate versus Control", "value": 71.58, "unit": "%"}, {"measurement": "Cmax Geometric Mean Ratio (%) (test/reference)", "setting": "[2]; Moderate versus Control", "value": 105.36, "unit": "%"}, {"measurement": "AUC0-t Geometric Mean Ratio (%) (test/reference)", "setting": "[2]; Severe versus Control", "value": 109.95, "unit": "%"}, {"measurement": "AUC0-tau Geometric Mean Ratio (%) (test/reference)", "setting": "[2]; Severe versus Control", "value": 58.86, "unit": "%"}, {"measurement": "Cmax Geometric Mean Ratio (%) (test/reference)", "setting": "[2]; Severe versus Control", "value": 77.69, "unit": "%"}, {"measurement": "Accumulation on Day 5", "setting": "[2]; any of the hepatic impaired cohorts", "value": "No accumulation"}, {"measurement": "AUC(0-t)", "setting": "[2]; healthy control subjects, read-out: AUC0-t (Reference Group)", "value": 7550, "unit": "ng·h/mL"}, {"measurement": "AUC", "setting": "[2]; healthy control subjects, read-out: AUC0-tau (Reference Group)", "value": 10500, "unit": "ng·h/mL"}, {"measurement": "Cmax", "setting": "[2]; healthy control subjects, read-out: Cmax (Reference Group)", "value": 649, "unit": "ng/mL"}, {"measurement": "Cmax", "setting": "[2]; mild hepatic impairment, 800 mg Day 1, 400 mg Days 2-5, read-out: Cmax (Test Group)", "value": 786, "unit": "ng/mL"}, {"measurement": "AUC(0-t)", "setting": "[2]; mild hepatic impairment, read-out: AUC0-t (Test Group)", "value": 8870, "unit": "ng·h/mL"}, {"measurement": "AUC", "setting": "[2]; mild hepatic impairment, read-out: AUC0-tau (Test Group)", "value": 7900, "unit": "ng·h/mL"}, {"measurement": "AUC(0-t)", "setting": "[2]; moderate hepatic impairment, read-out: AUC0-t (Test Group)", "value": 8900, "unit": "ng·h/mL"}, {"measurement": "AUC", "setting": "[2]; moderate hepatic impairment, read-out: AUC0-tau (Test Group)", "value": 7510, "unit": "ng·h/mL"}, {"measurement": "Cmax", "setting": "[2]; moderate hepatic impairment, read-out: Cmax (Test Group)", "value": 684, "unit": "ng/mL"}, {"measurement": "AUC(0-t)", "setting": "[2]; severe hepatic impairment, read-out: AUC0-t (Test Group)", "value": 8310, "unit": "ng·h/mL"}, {"measurement": "AUC", "setting": "[2]; severe hepatic impairment, read-out: AUC0-tau (Test Group)", "value": 6180, "unit": "ng·h/mL"}, {"measurement": "Cmax", "setting": "[2]; severe hepatic impairment, read-out: Cmax (Test Group)", "value": 504, "unit": "ng/mL"}, {"measurement": "half-life", "setting": "[2]; control", "value": 8.9, "unit": "h"}, {"measurement": "half-life", "setting": "[2]; mild hepatic impairment", "value": 10.2, "unit": "h"}, {"measurement": "half-life", "setting": "[2]; moderate hepatic impairment", "value": 10.4, "unit": "h"}, {"measurement": "half-life", "setting": "[2]; severe hepatic impairment", "value": 15.7, "unit": "h"}, {"measurement": "Mean plasma protein binding percentage at Day 5 Cmax", "setting": "[2]; mild or moderate hepatic impairment vs control", "value": "not significantly affected"}, {"measurement": "Mean plasma protein binding percentage at Day 5 Cmax", "setting": "[2]; severe cohort vs control", "value": "slightly lower"}]}]}
